In ChEMBL document CHEMBL5665443, “Enzyme Inhibitor Single Concentration assay results for EUbOPEN Chemogenomics Library” (2024):

How the values were obtained:
Settings in all cases: Compound Concentration 10.0 uM, Hit No
[1] = molecular target: Methyl-CpG-binding domain protein 4 (Homo sapiens) (UniProt O95243);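 also: MBD4 activity read as fluorescence at 594 nm from cleavage and release of a quenched duplex DNA oligonucleotide, with APE1 coupled to incise the strand and raise turnover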
Description: Inhibition of MBD4 by quantifying inhibition of MBD4-mediated cleavage and dissociation of quenched duplex DNA oligonucleotides, measured as fluorescence at 594 nm. To generate a functional strand incision and increase turn-over this assay is coupled to APE1.

[2] = molecular target: DNA-3-methyladenine glycosylase (Homo sapiens) (UniProt P29372);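 also: enzyme assay where MPG cuts a quenched duplex DNA oligonucleotide probe, paired with APE1 for strand incision and turnover, read as fluorescence at 594 nm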
Description: Inhibition of MPG by quantifying inhibition of MPG-mediated cleavage and dissociation of quenched duplex DNA oligonucleotides, measured as fluorescence at 594 nm. To generate a functional strand incision and increase turn-over this assay is coupled to APE1.

[3] = molecular target: Endonuclease 8-like 1 (Homo sapiens) (UniProt Q96FI4);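 also: fluorescence at 594 nm from quenched duplex DNA oligonucleotides released by NEIL1 cleavage and strand separation, reported as reduction of this enzyme activity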
Description: Inhibition of NEIL1 by quantifying inhibition of NEIL1-mediated cleavage and dissociation of quenched duplex DNA oligonucleotides, measured as fluorescence at 594 nm.

[4] = molecular target: T1, Endonuclease 8-like 2 (Homo sapiens) (UniProt Q969S2);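 also: fluorescence at 594 nm reports NEIL2 cutting and release of a quenched double-stranded DNA oligo substrate, reduced signal read as inhibition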
T1 sequence (whole entry): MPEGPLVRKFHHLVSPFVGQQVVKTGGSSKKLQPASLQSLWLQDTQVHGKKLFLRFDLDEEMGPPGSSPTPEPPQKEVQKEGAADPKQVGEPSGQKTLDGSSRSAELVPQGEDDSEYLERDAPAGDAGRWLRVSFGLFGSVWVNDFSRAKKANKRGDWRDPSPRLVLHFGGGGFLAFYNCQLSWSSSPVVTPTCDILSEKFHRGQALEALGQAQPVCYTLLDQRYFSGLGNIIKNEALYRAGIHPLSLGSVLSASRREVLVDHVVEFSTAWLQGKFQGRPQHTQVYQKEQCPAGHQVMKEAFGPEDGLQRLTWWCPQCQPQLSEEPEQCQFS
Description: Inhibition of NEIL2 by quantifying inhibition of NEIL2-mediated cleavage and dissociation of quenched duplex DNA oligonucleotides, measured as fluorescence at 594 nm.

[5] = molecular target: T2, Endonuclease III-like protein 1 (Homo sapiens) (UniProt P78549);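 also: enzyme assay tracking NTHL1 cutting and release of a quenched double-stranded DNA oligo substrate, read as fluorescence at 594 nm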
T2 sequence (whole entry): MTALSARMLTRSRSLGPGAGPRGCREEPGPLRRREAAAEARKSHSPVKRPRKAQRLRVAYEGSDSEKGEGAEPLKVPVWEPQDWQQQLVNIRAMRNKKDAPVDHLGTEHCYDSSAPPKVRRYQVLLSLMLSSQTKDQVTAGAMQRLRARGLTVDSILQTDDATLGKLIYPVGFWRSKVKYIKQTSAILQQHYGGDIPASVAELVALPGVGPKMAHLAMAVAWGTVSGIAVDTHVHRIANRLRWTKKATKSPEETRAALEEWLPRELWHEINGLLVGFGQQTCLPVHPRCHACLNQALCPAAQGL
Description: Inhibition of NTHL1 by quantifying inhibition of NTHL1-mediated cleavage and dissociation of quenched duplex DNA oligonucleotides, measured as fluorescence at 594 nm.

[6] = molecular target: N-glycosylase/DNA lyase (Homo sapiens) (UniProt O15527);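 also: OGG1 cleavage of a quenched duplex DNA oligonucleotide, coupled to APE1 for strand incision, read as fluorescence at 594 nm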
Description: Inhibition of OGG1 by quantifying inhibition of OGG1-mediated cleavage and dissociation of quenched duplex DNA oligonucleotides, measured as fluorescence at 594 nm. To generate a functional strand incision and increase turn-over this assay is coupled to APE1.

[7] = molecular target: T3, Single-strand selective monofunctional uracil DNA glycosylase (Homo sapiens) (UniProt Q53HV7);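 also: enzymatic SMUG1 assay coupled with APE1, reading fluorescence at 594 nm released when a quenched double-stranded DNA oligonucleotide substrate is cleaved and separated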
T3 sequence (whole entry): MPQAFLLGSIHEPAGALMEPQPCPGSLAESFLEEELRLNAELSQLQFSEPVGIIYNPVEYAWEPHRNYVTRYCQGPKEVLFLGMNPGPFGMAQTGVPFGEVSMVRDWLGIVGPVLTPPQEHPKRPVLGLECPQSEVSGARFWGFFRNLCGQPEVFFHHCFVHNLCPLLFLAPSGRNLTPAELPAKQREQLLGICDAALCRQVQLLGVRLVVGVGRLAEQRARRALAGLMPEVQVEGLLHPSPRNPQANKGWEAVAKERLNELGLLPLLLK
Description: Inhibition of SMUG1 by quantifying inhibition of SMUG1-mediated cleavage and dissociation of quenched duplex DNA oligonucleotides, measured as fluorescence at 594 nm. To generate a functional strand incision and increase turn-over this assay is coupled to APE1.

[8] = molecular target: G/T mismatch-specific thymine DNA glycosylase (Homo sapiens) (UniProt Q13569);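 also: human TDG cleavage of quenched duplex DNA oligonucleotides coupled to APE1, strand release read as fluorescence at 594 nm, inhibition of TDG activity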
Description: Inhibition of TDG by quantifying inhibition of TDG-mediated cleavage and dissociation of quenched duplex DNA oligonucleotides, measured as fluorescence at 594 nm. To generate a functional strand incision and increase turn-over this assay is coupled to APE1.

[9] = molecular target: Uracil-DNA glycosylase (Homo sapiens) (UniProt P13051);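 also: UNG excision on a quenched double-stranded DNA oligo probe, with APE1 added for strand incision and turnover, read as fluorescence at 594 nm as strands separate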
Sequence of Uracil-DNA glycosylase (Homo sapiens) (P13051 whole entry): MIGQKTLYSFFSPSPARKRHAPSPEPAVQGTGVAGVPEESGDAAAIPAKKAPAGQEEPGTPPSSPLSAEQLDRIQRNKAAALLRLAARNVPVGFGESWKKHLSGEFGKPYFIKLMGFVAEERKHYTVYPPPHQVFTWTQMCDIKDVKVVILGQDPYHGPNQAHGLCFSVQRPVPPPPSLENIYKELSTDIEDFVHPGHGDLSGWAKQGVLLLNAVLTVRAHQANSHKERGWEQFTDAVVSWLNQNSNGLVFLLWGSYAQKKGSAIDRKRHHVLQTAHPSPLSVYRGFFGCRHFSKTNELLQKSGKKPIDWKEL
Description: Inhibition of UNG by quantifying inhibition of UNG-mediated cleavage and dissociation of quenched duplex DNA oligonucleotides, measured as fluorescence at 594 nm. To generate a functional strand incision and increase turn-over this assay is coupled to APE1.

Sequence of Endonuclease 8-like 1 (Homo sapiens) (Q96FI4 whole entry): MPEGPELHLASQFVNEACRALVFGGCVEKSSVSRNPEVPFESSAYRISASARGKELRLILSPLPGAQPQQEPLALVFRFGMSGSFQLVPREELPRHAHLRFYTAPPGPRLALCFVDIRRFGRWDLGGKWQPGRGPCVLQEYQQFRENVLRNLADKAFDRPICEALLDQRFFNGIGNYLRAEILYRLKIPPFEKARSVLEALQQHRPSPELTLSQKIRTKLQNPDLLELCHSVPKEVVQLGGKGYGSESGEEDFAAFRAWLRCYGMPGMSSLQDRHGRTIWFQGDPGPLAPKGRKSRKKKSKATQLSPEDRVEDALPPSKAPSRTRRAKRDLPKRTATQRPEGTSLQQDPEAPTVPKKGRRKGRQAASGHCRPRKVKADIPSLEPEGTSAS
Sequence of G/T mismatch-specific thymine DNA glycosylase (Homo sapiens) (Q13569 whole entry): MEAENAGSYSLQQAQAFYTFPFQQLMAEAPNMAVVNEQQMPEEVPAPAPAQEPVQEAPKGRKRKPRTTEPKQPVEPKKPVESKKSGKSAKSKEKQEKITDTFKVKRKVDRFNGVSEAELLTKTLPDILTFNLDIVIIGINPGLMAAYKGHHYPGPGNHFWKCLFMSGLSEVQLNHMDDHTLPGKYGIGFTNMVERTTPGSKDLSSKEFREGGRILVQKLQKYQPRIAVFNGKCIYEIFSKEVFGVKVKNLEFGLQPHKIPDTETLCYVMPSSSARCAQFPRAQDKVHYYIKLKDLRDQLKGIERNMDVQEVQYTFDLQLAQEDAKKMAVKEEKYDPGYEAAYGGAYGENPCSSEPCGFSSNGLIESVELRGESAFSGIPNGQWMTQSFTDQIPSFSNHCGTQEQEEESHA
Sequence of DNA-3-methyladenine glycosylase (Homo sapiens) (P29372 whole entry): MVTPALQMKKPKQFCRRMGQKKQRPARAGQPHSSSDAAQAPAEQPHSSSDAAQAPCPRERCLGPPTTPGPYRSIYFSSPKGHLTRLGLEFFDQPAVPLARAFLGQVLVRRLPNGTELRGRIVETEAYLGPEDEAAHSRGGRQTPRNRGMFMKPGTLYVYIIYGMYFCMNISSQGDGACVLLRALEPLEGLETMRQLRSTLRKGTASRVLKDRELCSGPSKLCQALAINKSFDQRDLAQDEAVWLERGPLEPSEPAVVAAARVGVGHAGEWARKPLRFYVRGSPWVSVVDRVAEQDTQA
Sequence of Methyl-CpG-binding domain protein 4 (Homo sapiens) (O95243 whole entry, the tested form may be a part): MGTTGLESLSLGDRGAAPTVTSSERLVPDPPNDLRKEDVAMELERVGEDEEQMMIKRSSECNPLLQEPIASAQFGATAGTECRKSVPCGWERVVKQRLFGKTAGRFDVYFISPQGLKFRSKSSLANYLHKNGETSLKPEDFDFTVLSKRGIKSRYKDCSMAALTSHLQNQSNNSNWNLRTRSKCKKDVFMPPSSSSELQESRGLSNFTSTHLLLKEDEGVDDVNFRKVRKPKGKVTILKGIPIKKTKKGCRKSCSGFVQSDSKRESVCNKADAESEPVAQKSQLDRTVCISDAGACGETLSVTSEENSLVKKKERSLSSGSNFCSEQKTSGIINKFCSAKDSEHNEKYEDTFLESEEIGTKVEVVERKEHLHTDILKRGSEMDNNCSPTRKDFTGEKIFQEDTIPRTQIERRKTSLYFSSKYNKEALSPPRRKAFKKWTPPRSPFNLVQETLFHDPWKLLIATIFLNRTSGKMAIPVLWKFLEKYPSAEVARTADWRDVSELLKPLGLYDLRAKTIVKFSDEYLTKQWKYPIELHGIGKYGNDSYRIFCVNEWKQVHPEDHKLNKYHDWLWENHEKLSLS
Sequence of N-glycosylase/DNA lyase (Homo sapiens) (O15527 whole entry): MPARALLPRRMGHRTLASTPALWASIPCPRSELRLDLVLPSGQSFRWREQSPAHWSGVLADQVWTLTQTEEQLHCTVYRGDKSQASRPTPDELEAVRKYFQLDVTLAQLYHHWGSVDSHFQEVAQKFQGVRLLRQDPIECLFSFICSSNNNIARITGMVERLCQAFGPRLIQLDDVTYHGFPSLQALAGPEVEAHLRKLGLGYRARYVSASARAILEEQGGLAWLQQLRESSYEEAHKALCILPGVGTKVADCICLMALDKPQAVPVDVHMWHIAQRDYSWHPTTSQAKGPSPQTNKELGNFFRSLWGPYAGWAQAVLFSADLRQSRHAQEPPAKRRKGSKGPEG

Row | SMILES | inhibition [1] | inhibition [2] | inhibition [3] | inhibition [4] | inhibition [5] | inhibition [6] | inhibition [7] | inhibition [8] | inhibition [9]
1 | COC(=O)C1=C(C)NC(C)=C(C(=O)OC(C)C)C1c1cccc2nonc12 (centres undefined) | 3.95% | -0.967% | 1.94% | -0.86% | 15.4% | -6.65% | 0.608% | 5.72% | -3.24%
2 | Cc1cc(NC(=O)Nc2ccccc2)n(-c2ccccc2)n1 | 0.993% | 3.86% | 1.64% | 7.29% | 10.5% | – | 0.777% | 5.78% | 1.74%
3 | NC(CCP(=O)(O)O)C(=O)O (racemic) | 6.95% | -3.6% | 0.0927% | -9.22% | 2.66% | -1.26% | 10.5% | 24.4% | -6.54%
4 | CN1CCC(=C2c3ccccc3CC(=O)c3sccc32)CC1 | -9.08% | -7.46% | 8.25% | 2.26% | -2.47% | -5.18% | -4.83% | 2.08% | –
5 | CCCN1CCO[C@H]2c3cc(O)ccc3OC[C@@H]21 | -3.57% | 3.27% | 8.1% | -7.97% | 7.05% | -4.1% | – | -3.98% | –
6 | CCOC(=O)c1cnn(-c2ccc(NC(=O)C(Cl)=C(Cl)Cl)cc2)c1C(F)(F)F | 1.57% | 17.3% | -3.99% | 2.71% | 8% | -2.43% | 15% | 5.37% | 2.51%
7 | Cc1c(C(=O)NN2CCCCC2)nn(-c2ccc(Cl)cc2Cl)c1-c1ccc(Cl)cc1 | 16.2% | 15.3% | -1.09% | 0.764% | -0.275% | 9% | 11.7% | 19.2% | 1.35%
8 | O=C1NCCc2c(OCCCCN3CCCCC3)cccc21 | 2.31% | -7.35% | 5.05% | 3.98% | 23.7% | -7.4% | – | -4.06% | -4.57%
9 | CCOC(=O)c1ncn2c1CN(C)C(=O)c1cc(F)ccc1-2 | -4.21% | -3.91% | 0.389% | -1.48% | -6.87% | 0.398% | -0.518% | 9.02% | -9.3%
10 | COc1ccc(Cl)cc1[C@]1(F)C(=O)Nc2cc(C(F)(F)F)ccc21 | -4.08% | -5.04% | 3.12% | 17% | 6.35% | 4.52% | 8.52% | -9.73% | -2.84%
11 | CCN(CC)S(=O)(=O)Nc1cccc(-c2ccc3c(NC(=O)C4CC4)n[nH]c3c2)c1 | -2.59% | 3.86% | 9.38% | 5.35% | 9.15% | -4.92% | 11.9% | 45.5% | 2.23%
12 | c1nc(CC2CCNCC2)c[nH]1 | -3.22% | -7.11% | 7.21% | -0.983% | 7.05% | -4.12% | – | 10.2% | –
13 | COc1ccccc1-n1nc(C2CC(C)(C)OC(C)(C)C2)cc1-c1ccc(Cl)cc1 | -1.99% | -7.01% | 11.3% | -4.68% | 12.1% | – | – | -6.29% | -3.03%
14 | CNc1nc(NCc2ccc(NS(C)(=O)=O)cc2Cl)cc(-c2ccccn2)n1 | – | -5.26% | 3.5% | 7.25% | -9.07% | 15% | 11.2% | 18.1% | -9.82%
15 | Cc1nnsc1C(=O)Nc1ccc(-n2nc(C(F)(F)F)cc2C(F)(F)F)cc1 | – | -1.63% | 0.306% | 0.414% | 14.6% | 15.7% | 15.8% | – | -0.15%
16 | CC[C@@H](C[C@H]1COC(N)=N1)c1ccccc1 | 4.05% | -5.21% | 8.31% | -1.88% | 17.9% | – | – | 11.1% | -3.91%
17 | CCN(CC)CCCCC1CCN(CC(=O)N2c3ccccc3C(=O)Nc3cccnc32)CC1 | -4.84% | -8.23% | -7.47% | 12.7% | 12.2% | -2.09% | 1.37% | 10.1% | –
18 | O=C(NCc1cccnc1OCC(F)(F)F)c1cncc(-c2ccc(Cl)cc2)c1 | -9.96% | 2% | -4.73% | -0.35% | 0.568% | – | -3.23% | 3.98% | -5.85%
19 | COc1ccc(CCN(C)CCCC(C#N)(c2cc(OC)c(OC)c(OC)c2)C(C)C)cc1OC (centres undefined) | – | -3.7% | 5.05% | 2.71% | 3.04% | -7.76% | -0.579% | -7.93% | -3.3%
20 | C[C@H](N)Cn1ccc2cc(F)c(Cl)cc21 | 4.93% | -5.64% | – | – | 6.35% | – | – | -0.256% | -6.21%
21 | O=C(N[C@H]1CN2CCC1CC2)c1ccc(Cl)cc1 | 12.6% | -7.18% | 1.79% | 3.98% | 15.4% | – | 3.71% | 21.4% | -1.13%
22 | CCOc1ccc(S(=O)(=O)Nc2ccc(Cl)cc2C#Cc2cnc(C(=O)O)cc2OC)c2ncccc12 | 60.3% | 14.2% | 7.43% | – | -3.26% | 7.9% | 5.88% | 51.4% | 7.85%
23 | CC1(C)CC(CN2CCC(F)(CNC(=O)c3cc(Cl)cc(Cl)c3)CC2)CCO1 (centres undefined) | 12.4% | 9.94% | 6.23% | 6.78% | -3.56% | – | 8.24% | 12.8% | -1.24%
24 | COc1ccc(-n2nc3c4ccccc4[nH]cc-3c2=O)cc1 | 1.12% | -3.24% | 0.00926% | – | -6.86% | -8.16% | -6.96% | -5.16% | -4.77%
25 | O=C1CSC(=O)N1C(CCc1ccncc1)COc1ccc(-c2cccc([N+](=O)[O-])c2)cc1 (centres undefined) | – | -5.43% | 2.68% | 3.73% | 17.1% | -1.32% | 6.99% | -8.91% | -2.95%
26 | COC1CCN(c2cccc(-c3cc(NC(C)=O)nc(-n4nc(C)cc4C)n3)n2)CC1 | -4.26% | 6.5% | – | 2.26% | 12.2% | -4.31% | – | -3.39% | –
27 | Cc1c(C(=O)NC2CCCCC2)sc2nc3ccc(N)cc3n12 | 7.24% | -4.14% | -4.65% | 1.76% | 7.79% | -4.66% | 8.2% | 11.8% | –
28 | O=S1(=O)c2cccc3cccc(c23)N1CCCN1CCN(c2ccc(F)cc2)CC1 | – | -8.54% | -4.8% | -0.483% | 18.1% | 7.99% | 12.8% | 19% | -2.78%
29 | Cc1cc(-c2nncc3c(C(C)(C)C)c(OCc4ncnn4C)nn23)no1 | -4.07% | -9.01% | -1.32% | -4.17% | 1.39% | – | -0.184% | -4.49% | -3.18%
